In ChEMBL document CHEMBL5241053, “Discovery of novel steroidal-chalcone hybrids with potent and selective activity against triple-negative breast cancer” (Bioorg Med Chem, 2020):
pIC50: −log10 of the molar value. The source made the active and inactive calls. The rule behind the calls is not given here.

Assays:
[1] = tested on: MDA-MB-231; assay: Induction of cell cycle arrest in human MDA-MB-231 cells assessed as accumulation of cells at M1 phase at 5 uM incubated for 48 hrs by propidium iodide staining based flow cytometry (reference value: 7.1%); assay type: functional
[2] = tested on: MDA-MB-231; assay: Induction of apoptosis in human MDA-MB-231 cells assessed as decrease in Bcl-2 level upto 20 uM incubated for 48 hrs by Western blot analysis; assay type: functional, cell-based
[3] = tested on: MDA-MB-231; assay: Induction of apoptosis in human MDA-MB-231 cells assessed as late apoptotic cells at 13.5 uM measured for 48 hrs by Annexin V-FITC/PI staining based flow cytometry assay (reference value: 5.39%); assay type: functional
[4] = tested on: MDA-MB-231; assay: Induction of cell cycle arrest in human MDA-MB-231 cells assessed as accumulation of cells at M1 phase at 1 uM incubated for 48 hrs by propidium iodide staining based flow cytometry (reference value: 7.1%); assay type: functional
[5] = tested on: MDA-MB-231; assay: Induction of apoptosis in human MDA-MB-231 cells assessed as necrotic cells at 5 uM measured for 48 hrs by Annexin V-FITC/PI staining based flow cytometry assay (reference value: 0.43%); assay type: functional
[6] = tested on: MDA-MB-231; assay: Inhibition of colony formation in human MDA-MB-231 cells upto 5 uM for 9 days by crystal violet staining based assay; assay type: functional, cell-based; conditions: time 9.0 day
[7] = tested on: MDA-MB-231; assay: Induction of apoptosis in human MDA-MB-231 cells assessed as increase in Bax level upto 20 uM incubated for 48 hrs by Western blot analysis; assay type: functional, cell-based
[8] = tested on: MDA-MB-231; assay: Induction of cell cycle arrest in human MDA-MB-231 cells assessed as accumulation of cells at S phase at 1 uM incubated for 48 hrs by propidium iodide staining based flow cytometry (reference value: 3.62%); assay type: functional
[9] = tested on: MDA-MB-231; assay: Induction of apoptosis in human MDA-MB-231 cells assessed as late apoptotic cells at 5 uM measured for 48 hrs by Annexin V-FITC/PI staining based flow cytometry assay (reference value: 5.39%); assay type: functional
[10] = tested on: MDA-MB-231; assay: Induction of apoptosis in human MDA-MB-231 cells assessed as necrotic cells at 1 uM measured for 48 hrs by Annexin V-FITC/PI staining based flow cytometry assay (reference value: 0.43%); assay type: functional
[11] = tested on: MDA-MB-231; assay: Induction of cell cycle arrest in human MDA-MB-231 cells assessed as accumulation of cells at G2/M phase at 20 uM incubated for 48 hrs by propidium iodide staining based flow cytometry (reference value: 3.61%); assay type: functional
[12] = tested on: HT-29; assay: Antiproliferative activity against human HT-29 cells assessed as cell growth inhibition incubated for 4 hrs by MTT assay; assay type: functional, cell-based; conditions: HT-29, 4 h
[13] = tested on: MDA-MB-231; assay: Induction of cell cycle arrest in human MDA-MB-231 cells assessed as accumulation of cells at G0/G1 phase at 10 uM incubated for 48 hrs by propidium iodide staining based flow cytometry (reference value: 90.25%); assay type: functional
[14] = tested on: MDA-MB-231; assay: Induction of cell cycle arrest in human MDA-MB-231 cells assessed as accumulation of cells at G0/G1 phase at 5 uM incubated for 48 hrs by propidium iodide staining based flow cytometry (reference value: 90.25%); assay type: functional
[15] = tested on: A549; assay: Antiproliferative activity against human A549 cells assessed as cell growth inhibition incubated for 4 hrs by MTT assay; assay type: functional, cell-based; conditions: A549, 4 h
[16] = tested on: MDA-MB-231; assay: Induction of cell cycle arrest in human MDA-MB-231 cells assessed as accumulation of cells at M1 phase at 10 uM incubated for 48 hrs by propidium iodide staining based flow cytometry (reference value: 7.1%); assay type: functional
[17] = tested on: MDA-MB-231; assay: Induction of cell cycle arrest in human MDA-MB-231 cells assessed as accumulation of cells at G2/M phase at 5 uM incubated for 48 hrs by propidium iodide staining based flow cytometry (reference value: 3.61%); assay type: functional
[18] = tested on: MDA-MB-231; assay: Induction of apoptosis in human MDA-MB-231 cells assessed as early apoptotic cells at 10 uM measured for 48 hrs by Annexin V-FITC/PI staining based flow cytometry assay (reference value: 0.49%); assay type: functional
[19] = tested on: MDA-MB-231; assay: Induction of apoptosis in human MDA-MB-231 cells assessed as upregulation of PARP level upto 20 uM incubated for 48 hrs by Western blot analysis; assay type: functional, cell-based
[20] = tested on: MDA-MB-231; assay: Induction of apoptosis in human MDA-MB-231 cells assessed as upregulation of cleaved caspase-3 level upto 20 uM incubated for 48 hrs by Western blot analysis; assay type: functional, cell-based
[21] = tested on: MDA-MB-231; assay: Induction of apoptosis in human MDA-MB-231 cells assessed as early apoptotic cells at 5 uM measured for 48 hrs by Annexin V-FITC/PI staining based flow cytometry assay (reference value: 0.49%); assay type: functional
[22] = tested on: MDA-MB-231; assay: Induction of apoptosis in human MDA-MB-231 cells assessed as necrotic cells at 10 uM measured for 48 hrs by Annexin V-FITC/PI staining based flow cytometry assay (reference value: 0.43%); assay type: functional
[23] = Selectivity index, ratio of IC50 for antiproliferative activity against human HT-29 cells to IC50 for antiproliferative activity against human MDA-MB-231 cells; assay type: functional
[24] = tested on: MDA-MB-231; assay: Induction of apoptosis in human MDA-MB-231 cells assessed as viable cells at 1 uM measured for 48 hrs by Annexin V-FITC/PI staining based flow cytometry assay (reference value: 93.7%); assay type: functional; conditions: read-out: Activity
[25] = tested on: MDA-MB-231; assay: Induction of apoptosis in human MDA-MB-231 cells assessed as viable cells at 10 uM measured for 48 hrs by Annexin V-FITC/PI staining based flow cytometry assay (reference value: 93.7%); assay type: functional; conditions: read-out: Activity
[26] = tested on: MDA-MB-231; assay: Induction of apoptosis in human MDA-MB-231 cells assessed as early apoptotic cells at 1 uM measured for 48 hrs by Annexin V-FITC/PI staining based flow cytometry assay (reference value: 0.49%); assay type: functional
[27] = tested on: MDA-MB-231; assay: Induction of apoptosis in human MDA-MB-231 cells assessed as late apoptotic cells at 1 uM measured for 48 hrs by Annexin V-FITC/PI staining based flow cytometry assay (reference value: 5.39%); assay type: functional
[28] = tested on: MDA-MB-231; assay: Induction of cell cycle arrest in human MDA-MB-231 cells assessed as accumulation of cells at G0/G1 phase at 20 uM incubated for 48 hrs by propidium iodide staining based flow cytometry (reference value: 90.25%); assay type: functional
[29] = tested on: MDA-MB-231; assay: Induction of apoptosis in human MDA-MB-231 cells assessed as increase in ROS levels at 10 uM measured at 12 hrs by DCFH-DA staining based flow cytometry assay; assay type: functional, cell-based
[30] = tested on: MDA-MB-231; assay: Induction of cell cycle arrest in human MDA-MB-231 cells assessed as accumulation of cells at S phase at 5 uM incubated for 48 hrs by propidium iodide staining based flow cytometry (reference value: 3.62%); assay type: functional
[31] = tested on: MDA-MB-231; assay: Induction of cell cycle arrest in human MDA-MB-231 cells assessed as accumulation of cells at G0/G1 phase at 1 uM incubated for 48 hrs by propidium iodide staining based flow cytometry (reference value: 90.25%); assay type: functional
[32] = tested on: MDA-MB-231; assay: Induction of cell cycle arrest in human MDA-MB-231 cells assessed as accumulation of cells at G2/M phase at 1 uM incubated for 48 hrs by propidium iodide staining based flow cytometry (reference value: 3.61%); assay type: functional
[33] = Selectivity index, ratio of IC50 for antiproliferative activity against human A549 cells to IC50 for antiproliferative activity against human MDA-MB-231 cells; assay type: functional
[34] = tested on: MDA-MB-231; assay: Induction of cell cycle arrest in human MDA-MB-231 cells assessed as accumulation of cells at M1 phase at 20 uM incubated for 48 hrs by propidium iodide staining based flow cytometry (reference value: 7.1%); assay type: functional
[35] = tested on: MDA-MB-231; assay: Antiproliferative activity against human MDA-MB-231 cells assessed as cell growth inhibition incubated for 4 hrs by MTT assay; assay type: functional, cell-based; conditions: MDA-MB-231, 4 h
[36] = tested on: MDA-MB-231; assay: Induction of cell cycle arrest in human MDA-MB-231 cells assessed as accumulation of cells at G2/M phase at 10 uM incubated for 48 hrs by propidium iodide staining based flow cytometry (reference value: 3.61%); assay type: functional
[37] = tested on: MDA-MB-231; assay: Induction of apoptosis in human MDA-MB-231 cells assessed as increase in ROS levels at 10 uM measured upto 48 hrs by DCFH-DA staining based flow cytometry assay; assay type: functional, cell-based
[38] = tested on: MDA-MB-231; assay: Induction of cell cycle arrest in human MDA-MB-231 cells assessed as accumulation of cells at S phase at 20 uM incubated for 48 hrs by propidium iodide staining based flow cytometry (reference value: 3.62%); assay type: functional
[39] = tested on: MDA-MB-231; assay: Induction of apoptosis in human MDA-MB-231 cells assessed as viable cells at 5 uM measured for 48 hrs by Annexin V-FITC/PI staining based flow cytometry assay (reference value: 93.7%); assay type: functional; conditions: read-out: Activity
[40] = tested on: MDA-MB-231; assay: Induction of cell cycle arrest in human MDA-MB-231 cells assessed as accumulation of cells at S phase at 10 uM incubated for 48 hrs by propidium iodide staining based flow cytometry (reference value: 3.62%); assay type: functional

SMILES: COc1ccccc1/C=C/C(=O)NCCNC(=O)[C@H]1CC[C@H]2[C@@H]3CCC4=CC(=O)CC[C@]4(C)[C@H]3CC[C@]12C
- Activity [1]: 16%
- Activity [2]: Active
- Activity [3]: 13.5%
- Activity [4]: 13.8%
- Activity [5]: 0.16%
- inhibition [6]: Active
- Activity [7]: Active
- Activity [8]: 2.52%
- Activity [9]: 4.35%
- Activity [10]: 0.16%
- Activity [11]: 10.01%
- pIC50 [12]: 4.93
- Activity [13]: 55.27%
- Activity [14]: 69.83%
- pIC50 [15]: 4.51
- Activity [16]: 22.8%
- Activity [17]: 12.25%
- Activity [18]: 45%
- Activity [19]: Active
- Activity [20]: Active
- Activity [21]: 17.1%
- Activity [22]: 0.4%
- Ratio IC50 [23]: 22.5
- viability at 1 µM [24]: 84%
- viability at 10 µM [25]: 41.1%
- Activity [26]: 9.24%
- Activity [27]: 6.63%
- Activity [28]: 47.17%
- Activity [29]: Active
- Activity [30]: 15.23%
- Activity [31]: 84.13%
- Activity [32]: 12.11%
- Ratio IC50 [33]: 73.5
- Activity [34]: 37.4%
- pIC50 [35]: 6.38
- Activity [36]: 13.15%
- Activity [37]: Active
- Activity [38]: 37.22%
- viability at 5 µM [39]: 78.3%
- Activity [40]: 28.07%
